Data from publication PMC5552880, “The Bitter Taste Receptor TAS2R16 Achieves High Specificity and Accommodates Diverse Glycoside Ligands by using a Two-faced Binding Pocket” (Scientific Reports, 2017).
Substitutions are numbered along the chain they refer to. “Also recorded” adds a separate entry of the source. Like-named read-outs stand apart in the source and are kept apart here.

Tests used:
TAS2R16 [1] = settings: disaccharides; cited from earlier work
W261G TAS2R16 = molecular target: T1, W261G TAS2R16 (Homo sapiens, UniProt Q9NYV7, W261G); experiment: Ca2+ flux assay, mutation library clone W261G; type: cell-based; settings: W261G TAS2R16, relative to wild-type, Fig. 5A
T1 construct: FLAG (N); expressed in transfected cells; host or cells: HEK-293T
Description: (§1) The TAS2R16 mutation library was tested for function using a Ca^2+ flux assay as described previously. Later screens of individual TAS2R16 mutant clones used 4-nitrophenyl-β-D-glucopyranoside. Briefly, HEK-293T cells, in poly-lysine coated, black 384-well plates with clear bottoms (Costar), were transfected with the TAS2R16 mutation library, and a plasmid expressing a Gα16 chimera containing the last 44 amino acids of rat gustducin (Gα16gust44). Cells were incubated for 22 hours at 37 °C then washed twice with a calcium indicator dye in HBSS containing 20 mM HEPES (Calcium 4 Assay kit, Molecular Devices), incubated with HBSS for 1.5 hr, then moved to a Flexstation II-384 (Molecular Devices) set at 32 °C. […] Concentrations for mutation library screening were chosen to be approximately 2 to 3 times higher than the EC50 values for the ligands to maximize the sensitivity of detecting decreases in signaling due to the mutation in each clone.
(§2) For Ca^2+ flux assays, the value of fluorescence at 30 seconds after ligand addition (the time of peak signal for wild-type TAS2R16) was used as the maximum value. […] Data sets were analyzed and represented as percentage over baseline signal. Mean and standard deviation values were calculated for each clone from replicate assay data.

wild-type TAS2R16 = molecular target: T2, wild-type TAS2R16 (Homo sapiens, UniProt Q9NYV7); experiment: Ca2+ flux assay, HEK-293T cells expressing wild-type TAS2R16 and Gα16gust44; type: cell-based; settings: for activation of TAS2R16 (agonist screen): compounds screened at 10 mM, wild-type TAS2R16, Fig. 2a
T2 construct: FLAG (N); expressed in transfected cells; host or cells: HEK-293T
T2 sequence (Q9NYV7 1-291): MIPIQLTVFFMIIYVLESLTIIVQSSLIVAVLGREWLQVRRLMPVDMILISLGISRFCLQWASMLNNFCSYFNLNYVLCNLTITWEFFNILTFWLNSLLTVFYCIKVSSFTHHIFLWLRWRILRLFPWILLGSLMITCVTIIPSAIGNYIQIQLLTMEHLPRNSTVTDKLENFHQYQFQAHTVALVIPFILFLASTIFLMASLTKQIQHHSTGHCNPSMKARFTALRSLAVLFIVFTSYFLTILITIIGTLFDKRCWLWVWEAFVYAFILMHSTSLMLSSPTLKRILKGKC
Description: as §1
(§3) For Ca^2+ flux assays, the value of fluorescence at 30 seconds after ligand addition (the time of peak signal for wild-type TAS2R16) was used as the maximum value. […] Raw data obtained from surface expression and flux experiments were normalized to the values for wild-type TAS2R16 on each plate. Data sets were analyzed and represented as percentage over baseline signal. Mean and standard deviation values were calculated for each clone from replicate assay data.
(§4) Ligand dose-response data was analyzed with Graphpad Prism 5 software. Data was baseline subtracted and then fit using a sigmoidal dose-response (variable slope) equation.

W261A TAS2R16 = molecular target: T3, W261A TAS2R16 (Homo sapiens, UniProt Q9NYV7, W261A); experiment: Ca2+ flux assay, W261A TAS2R16 variant; type: cell-based; settings: for activation of W261A variant: W261A TAS2R16, relative to wild-type; for decrease in EC50 with W261 mutation compared to WT: W261 to alanine or glycine vs WT
T3 construct: FLAG (N); expressed in transfected cells; host or cells: HEK-293T
T3 sequence (Q9NYV7 1-291 W261A): T2 sequence (Q9NYV7 1-291) with W261A
Description: as §1, §3, §4

C79A TAS2R16 = molecular target: T4, C79A TAS2R16 (Homo sapiens, UniProt Q9NYV7, C79A); experiment: Ca2+ flux assay, C79A TAS2R16 variant; type: cell-based; settings: Figure S3
T4 construct: FLAG (N); expressed in transfected cells; host or cells: HEK-293T
Description: as §1, §2

S228T TAS2R16 = molecular target: T5, S228T TAS2R16 (Homo sapiens, UniProt Q9NYV7, S228T); experiment: Ca2+ flux assay, mutation library clone S228T; type: cell-based; settings: library screening concentrations
T5 construct: FLAG (N); expressed in transfected cells; host or cells: HEK-293T
T5 sequence (Q9NYV7 1-291 S228T): T2 sequence (Q9NYV7 1-291) with S228T
Description: as §1, §3

S108T TAS2R16 = molecular target: T6, S108T TAS2R16 (Homo sapiens, UniProt Q9NYV7, S108T); experiment: Ca2+ flux assay, mutation library clone S108T; type: cell-based; settings: library screening concentrations
T6 construct: FLAG (N); expressed in transfected cells; host or cells: HEK-293T
T6 sequence (Q9NYV7 1-291 S108T): T2 sequence (Q9NYV7 1-291) with S108T
Description: as §1, §3

TAS2R43 = settings: cited from earlier work
TAS2R16 [2] = settings: cited from earlier work
TAS2R38 = settings: cited from earlier work
N96A TAS2R16 = molecular target: T7, N96A TAS2R16 (Homo sapiens, UniProt Q9NYV7, N96A); experiment: Ca2+ flux assay, N96A TAS2R16 variant; type: cell-based; settings: Fig. 7 dose-response
T7 construct: FLAG (N); expressed in transfected cells; host or cells: HEK-293T
Description: as §1, §2
(§5) Ligand dose-response data was analyzed with Graphpad Prism 5 software. […]

N96T TAS2R16 = molecular target: T8, N96T TAS2R16 (Homo sapiens, UniProt Q9NYV7, N96T); experiment: Ca2+ flux assay, N96T TAS2R16 variant; type: cell-based; settings: Fig. 7 dose-response
T8 construct: FLAG (N); expressed in transfected cells; host or cells: HEK-293T
Description: as §1, §2, §5

[3] = Fig. 5b dose-response, wild-type TAS2R16, read-out: EC50 (WT)
[4] = Fig. 5b dose-response, W261A TAS2R16
[5] = Fig. 2d dose-response, wild-type TAS2R16, HEK-293T, read-out: EC50

T4 sequence (Q9NYV7 whole entry C79A): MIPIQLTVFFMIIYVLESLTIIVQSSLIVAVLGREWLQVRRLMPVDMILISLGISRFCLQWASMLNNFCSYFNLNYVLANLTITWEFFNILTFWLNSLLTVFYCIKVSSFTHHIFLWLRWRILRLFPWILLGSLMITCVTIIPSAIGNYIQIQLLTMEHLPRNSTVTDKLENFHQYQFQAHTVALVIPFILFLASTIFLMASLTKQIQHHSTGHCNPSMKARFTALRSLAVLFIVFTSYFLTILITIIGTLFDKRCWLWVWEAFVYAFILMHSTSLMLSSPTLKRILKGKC
T8 sequence (Q9NYV7 whole entry N96T): as the sequence (Q9NYV7 whole entry C79A) above, with A79C, N96T counted along it
T1 sequence (Q9NYV7 whole entry W261G): as the sequence (Q9NYV7 whole entry C79A) above, with A79C, W261G counted along it
T7 sequence (Q9NYV7 whole entry N96A): as the sequence (Q9NYV7 whole entry C79A) above, with A79C, N96A counted along it

Molecule: gentiobiose
- activation of TAS2R16 (TAS2R16 [1]): activation

Molecule: O=[N+]([O-])c1ccc(O[C@@H]2O[C@H](CO)[C@@H](O)[C@H](O)[C@H]2O)cc1 [4-NP-β-glucoside, 4-nitrophenyl-β-D-glucopyranoside]
- activation of W261G variant (W261G TAS2R16): higher than wild-type
- EC50 (wild-type TAS2R16; [3]): 4900 µM
- EC50 (W261A TAS2R16; [4]): 1800 µM
- activation of W261A variant (W261A TAS2R16): strongly activated; also recorded: higher than wild-type; also recorded: increased the activation
- decrease in EC50 with W261 mutation compared to WT (W261A TAS2R16): ~ 4 fold

Molecule: OC[C@H]1O[C@@H](Sc2ccccc2)[C@H](O)[C@@H](O)[C@@H]1O [phenyl-β-D-thioglucopyranoside]
- activation of TAS2R16 (agonist screen) (wild-type TAS2R16): moderate to robust activation
- activation of wild-type TAS2R16 (wild-type TAS2R16; wild-type TAS2R16, HEK-293T): activation

Molecule: C=CCC(=NOS(=O)(=O)O)S[C@@H]1O[C@H](CO)[C@@H](O)[C@H](O)[C@H]1O (stereo in doubt) [sinigrin]
- activation of wild-type TAS2R16 (wild-type TAS2R16; wild-type TAS2R16, HEK-293T): activation

Molecule: CC(=O)N[C@H]1[C@H](Oc2ccccc2)O[C@H](CO)[C@@H](O)[C@@H]1O [β-glucosaminide, phenyl-N-acetyl-β-D-glucosaminide]
- activation, % of wild-type activation (C79A TAS2R16): 90 % of wild-type
- EC50 (wild-type TAS2R16; [5]): 2500 µM
- activation of TAS2R16 (agonist screen) (wild-type TAS2R16): moderate to robust activation
- Ca2+ flux signaling value (S228T TAS2R16): 105 % of wild-type
- Ca2+ flux signaling value (S108T TAS2R16): 132 % of wild-type

Molecule: CCCN(CCC)S(=O)(=O)c1ccc(C(=O)O)cc1 [probenecid]
- action on TAS2R43 (TAS2R43): allosteric inhibitor
- action on TAS2R16 (TAS2R16 [2]): allosteric inhibitor
- action on TAS2R38 (TAS2R38): allosteric inhibitor

Molecule: O=[N+]([O-])c1ccc(O[C@@H]2O[C@H](CO)[C@@H](O)[C@H](O)[C@@H]2O)cc1 [4-NP-β-mannoside, 4-nitrophenyl-β-D-mannopyranoside]
- EC50 (N96A TAS2R16): 1000 µM
- EC50 (wild-type TAS2R16; [3]): 800 µM
- EC50 (wild-type TAS2R16; Fig. 6 comparative dose-response, wild-type TAS2R16, read-out: EC50 (WT)): 1200 µM
- EC50 (wild-type TAS2R16; Fig. 7 dose-response, wild-type TAS2R16, read-out: EC50 (WT)): 1100 µM
- EC50 (wild-type TAS2R16; [5]): 650 µM
- lower EC50 than 4-NP-β-glucoside (wild-type TAS2R16; wild-type TAS2R16, Fig. 6A): 4 fold
- EC50 (W261A TAS2R16; [4]): 200 µM
- activation of W261A variant (W261A TAS2R16): strongly activated; also recorded: increased the activation
- decrease in EC50 with W261 mutation compared to WT (W261A TAS2R16): ~ 4 fold
- Ca2+ flux signaling value (S228T TAS2R16): 120 % of wild-type
- EC50 (N96T TAS2R16): 200 µM
- Ca2+ flux signaling value (S108T TAS2R16): 103 % of wild-type

Molecule: N#C[C@H](O[C@@H]1O[C@H](CO[C@@H]2O[C@H](CO)[C@@H](O)[C@H](O)[C@H]2O)[C@@H](O)[C@H](O)[C@H]1O)c1ccccc1 [amygdalin]
- activation of TAS2R16 (TAS2R16 [1]): activation

Molecule: OC[C@H]1O[C@@H](Oc2ccccc2)[C@H](O)[C@@H](O)[C@@H]1O [phenyl-β-glucoside, phenyl-β-D-glucoside]
- EC50 (WT) (wild-type TAS2R16; Fig. 5b dose-response, wild-type TAS2R16): high
- activation of wild-type TAS2R16 (wild-type TAS2R16; wild-type TAS2R16, HEK-293T): substantially weaker activation
- EC50 (W261A) (W261A TAS2R16; [4]): high

Molecule: CCCCCCO[C@@H]1O[C@H](CO)[C@@H](O)[C@H](O)[C@H]1O [hexyl-glucoside, hexyl-β-D-glucopyranoside]
- EC50 (wild-type TAS2R16; [5]): 2100 µM
- Ca2+ flux signaling value (S228T TAS2R16): 122 % of wild-type
- Ca2+ flux signaling value (S108T TAS2R16): 122 % of wild-type
